Results from patent US20180008587A1, “THIOHYDANTOIN ANDROGEN RECEPTOR ANTAGONISTS FOR THE TREATMENT OF CANCER” (Jaressen Pharmaceutica NV, priority 2016, published 2018).

What was measured:
AR T877A = target: T1, AR T877A (Homo sapiens, UniProt P10275, T878A); assay: Luciferase transcriptional reporter assay, mutant AR, HepG2, antagonist mode; assay type: cell-based; conditions: HepG2, 90 pM R1881, 48 hours; * denotes incomplete inhibition (otherwise 100%); read-out: Antagonism; IC50, AR construct T877A
T1 construct: expressed in transfected cells; host or cells: HepG2
T1 sequence (P10275 1-920 T878A): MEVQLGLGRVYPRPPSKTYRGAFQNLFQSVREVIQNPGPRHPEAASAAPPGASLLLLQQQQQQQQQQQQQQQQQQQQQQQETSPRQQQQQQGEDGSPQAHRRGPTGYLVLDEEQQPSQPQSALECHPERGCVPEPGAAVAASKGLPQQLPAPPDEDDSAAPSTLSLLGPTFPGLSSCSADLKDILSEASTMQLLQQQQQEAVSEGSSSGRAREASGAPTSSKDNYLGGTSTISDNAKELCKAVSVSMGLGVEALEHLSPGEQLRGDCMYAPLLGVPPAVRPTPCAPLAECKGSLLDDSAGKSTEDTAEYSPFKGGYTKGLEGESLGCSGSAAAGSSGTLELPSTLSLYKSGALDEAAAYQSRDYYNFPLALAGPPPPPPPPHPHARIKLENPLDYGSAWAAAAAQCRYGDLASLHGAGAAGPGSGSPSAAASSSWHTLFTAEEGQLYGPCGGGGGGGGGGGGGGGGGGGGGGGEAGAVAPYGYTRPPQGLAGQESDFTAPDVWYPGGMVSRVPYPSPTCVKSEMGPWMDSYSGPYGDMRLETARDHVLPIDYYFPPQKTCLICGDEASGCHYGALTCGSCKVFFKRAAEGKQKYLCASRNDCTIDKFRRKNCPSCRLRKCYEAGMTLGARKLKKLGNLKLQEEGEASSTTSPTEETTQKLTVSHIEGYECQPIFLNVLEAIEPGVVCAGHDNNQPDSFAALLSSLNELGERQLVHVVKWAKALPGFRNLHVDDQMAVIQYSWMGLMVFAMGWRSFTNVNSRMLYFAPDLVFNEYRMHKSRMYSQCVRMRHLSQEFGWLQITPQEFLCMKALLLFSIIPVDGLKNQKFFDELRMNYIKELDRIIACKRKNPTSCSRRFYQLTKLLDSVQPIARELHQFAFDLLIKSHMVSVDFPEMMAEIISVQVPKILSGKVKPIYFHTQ
Description: HepG2 cells were maintained in EMEM supplemented with 10% FBS. One day before transfection, the media was changed to EMEM with 10% CSS. T-150 flasks were transiently transfected using 120 μL Lipofectamine 2000 (Life Technologies), 30 μg mutant cDNA (expression vector)—mutant cDNA tested were L701H, T877A, W741C and H874Y—and 40 μg 4×ARE-Luciferase (reporter vector) in OptiMEM and the flasks were incubated overnight. Cells were then trypsinized, counted and resuspended at 500,000 cells/mL. For agonist mode, the compounds of Formula (I) are serially diluted and 50 μL of the compound added per well. 50 μL of the cells are added to each well and incubated for 48 hours. For antagonist mode, a final concentration of 90 pM R1881 was added to the diluted compounds and incubated for 48 hours. The plates were then assayed using SteadyGlo and read on the Envision. Percent Stimulation and Inhibition is determined and analyzed using GraphPad Prism.
All values are calculated relative to the activity of R1881 induced androgen receptor activity (n≧3).

LNCaP SRα F876L tumors = assay: Castrate resistant prostate cancer xenograft study; assay type: in vivo, mouse; conditions: castrate SHO mice
Description: Castrate six to seven week old male SCID Hairless Outbred mice (SHO, Charles Rivers Laboratories) were used as the host strain for xenograft studies. LNCaP SRα F876L tumors were established in host mice and the anti-tumor activity of compounds defined herein was determined. Dosing was initiated when tumors reached 100 to 200 mm^3 and animals were randomized to each of test groups (vehicle (HP-β-CD), 10 mg/kg, 30 mg/kg or 50 mg/kg compound). Compound was dosed orally, QD, for 28 days and tumor size was measured twice weekly along with body weight measurement. At the end of study, the TGI was calculated using initial tumor volume and final tumor volume measurements. TGI: 100−(Treated/Control*100). At the termination of study tumors were collected and stored for further analyses.

[1] = tested on: androgen dependent signaling; assay: Hershberger assay; assay type: in vivo, rat; conditions: castrated rats, mean ± SD (n=6)
Description: The effect of AR antagonists on androgen dependent signaling in vivo was assessed using the Hershberger assay. In this assay, peripubertal castrated male Sprague-Dawley rats were administered AR antagonists described herein in the presence of testosterone (0.4 mg/kg testosterone propionate) and the weights of androgen dependent organs measured. Dosing was continued for 10 days and measurements taken 24 h after the last dose. The extent of antagonism of AR and consequent inhibition of organ growth was evaluated by comparison to the castration control. Compounds of Formula (I) were dosed orally QD and an endpoint assessment made by change in weight of 5 androgen sensitive organs (ASO): Paired Cowper's Glands (CG), Seminal Vesicles with Fluids and Coagulating Glands (SVCG), Glans Penis (GP), Ventral Prostate (VP) and Levator Ani-Bulbocavernosus Complex (LABC)). According to assay guidelines, statistically significant suppression of ASO is required in 2 of 5 organs for a compound to be classified as an anti-androgen (analysis was performed by t-test/Mann-Whitney).
Compounds defined herein were administered at the indicated dose (mg/kg) and flutamide (FT), positive control, at 3 mg/kg. All compounds were co-administered with testosterone propionate (TP, 0.4 mg/kg) which was also administered alone, untreated control, (castrated only rats served as the control for complete androgen blockade). A statistically significant change in ASO achieved in at least 2 of 5 organs was indicative of an active compound.

[2] = 30 mg/kg orally QD 10 days with testosterone propionate 0.4 mg/kg
[3] = 3 mg/kg orally QD 10 days with testosterone propionate 0.4 mg/kg
[4] = 10 mg/kg orally QD 10 days with testosterone propionate 0.4 mg/kg

Row | IC50 (AR T877A) [µM] | Structure (SMILES) | TGI (%) (LNCaP SRα F876L tumors; 30 mg/kg orally QD 28 days) | ASO Organ Growth (% of TP control) SVCG [1, 2] | ASO Organ Growth (% of TP control) VP [1, 2] | TGI (%) (LNCaP SRα F876L tumors; 10 mg/kg orally QD 28 days) | ASO Organ Growth (% of TP control) SVCG [1, 3] | ASO Organ Growth (% of TP control) VP [1, 3] | ASO Organ Growth (% of TP control) SVCG [1, 4] | ASO Organ Growth (% of TP control) VP [1, 4]
1 | 3.59 | N#Cc1ncc(N2C(=O)C3(CCC3)N(c3ccc(OC4CCNCC4)cc3)C2=S)cc1C(F)(F)F [Cpd 35, 5-[5-oxo-8-[4-(4-piperidyloxy)phenyl]-7-thioxo-6,8-diazaspiro[3.4]octan-6-yl]-3-(trifluoromethyl)pyridine-2-carbonitrile] | 53 | 28.1 ± 19.5 % of TP control | 25.7 ± 22.9 % of TP control | – | – | – | – | –
2 | – | CN1CCC(Oc2ccc(N3C(=S)N(c4cnc(C#N)c(C(F)(F)F)c4)C(=O)C34CCC4)cc2)CC1 [Cpd 85, 5-[8-[4-[(1-methyl-4-piperidyl)oxy]phenyl]-5-oxo-7-thioxo-6,8-diazaspiro[3.4]octan-6-yl]-3-(trifluoromethyl)pyridine-2-carbonitrile] | 100.8 | 8.5 ± 14.7 % of TP control | 13.2 ± 19.2 % of TP control | 80.2 | 67.3 ± 20.2 % of TP control | 72.3 ± 18.5 % of TP control | 31.6 ± 37.7 % of TP control | 37.4 ± 25.6 % of TP control
3 | 7.51 | N#Cc1ncc(N2C(=O)C3(CCC3)N(c3ccc(C(=O)NCCCO)c(F)c3)C2=S)cc1C(F)(F)F [Cpd 40, 4-[6-[6-cyano-5-(trifluoromethyl)-3-pyridyl]-5-oxo-7-thioxo-6,8-diazaspiro[3.4]octan-8-yl]-2-fluoro-N-(3-hydroxypropyl)benzamide] | – | – | – | – | – | – | – | –
